From patent publication US7884120B2, “2,4,5-trisubstituted imidazoles and their use as anti-microbial agents” (Lorus Therapeutics Inc., priority 2002, dated 2011)
Converted amounts (≈) assume the structure as drawn. Read-outs that look alike come from different tables or passages of the source.

Key:
[1] = tested on: Methicillin-Resistant Staphylococcus aureus (MRSA), CMRSA-1B; assay: MIC by sequential macrodilution (tube) broth method against MRSA; assay type: cell-based; set-up: key: (+): Positive visual bacterial growth; (−): Negative visual bacterial growth; conditions: 37° C. overnight
Method: (Nat. Committee for Clinical Laboratory Standards. Document M7-A5 2000, 20; 1-25). Bacterial suspensions containing 5×10^5 colony-forming units (CFU) were incubated with serial two-fold dilutions of each drug at 37° C. overnight, and growth was monitored visually. The range of MIC values among the triaryl-imidazole derivatives was 12.5-50 μg/ml.

[2] = tested on: MRSA-1B387; assay: In vivo inhibition of MRSA, acute infection in immunosuppressed CB17-SCID mice; set-up: species or system Staphylococcus aureus; conditions: 5×10^6 MRSA-1B387 in 5% mucin, 50 mg/kg I.P. immediately and 3 hours after inoculation
Method: Triaryl-imidazole compounds were tested in vivo for antibacterial activity against MRSA in a model of acute infection using immunosuppressed mice. Suspensions of 400 μL containing 5×10^6 MRSA-1B387 bacteria in 5% mucin were injected into groups of 5-10 female, 8-14 weeks CB17-SCID mice. Under these conditions bacterial infection produced 80-100% lethality in less than 48 hours. Each group of inoculated mice was treated with 50 mg/kg of the respective compound intraperitoneally (I.P.) immediately and 3 hours after bacterial inoculation.

[3] = tested on: multi-drug resistant Staphylococcus aureus (CMRSA-1B); assay: Bactericidal effect against MRSA (CFU plating on TSA); assay type: cell-based; conditions: overnight with compound, plated on TSA, CFU count (FIG. 1)
Method: Serial dilutions of liquid cultures were incubated with the compounds at 37° C. overnight and then plated on Tryptic Soy Agar (TSA) plates. After incubation for 17 hours at 37° C., the number of live bacteria was calculated from the number of colonies grown per milliliter of culture and expressed as colony-forming units (CFU).

[4] = tested on: MRSA 1B-387; assay: In vivo anti-bacterial activity, ICR mice inoculated I.P. with MRSA, oral treatment; conditions: Staphylococcus aureus
Method: For in vivo studies, groups of 5-10 female ICR mice (6-7 weeks) were inoculated intraperitonially with 3-8×10^7 CFU MRSA 1B-387 per mouse in 400 μl of 5% mucin. The test compounds at concentrations of 50 or 100 mg/kg were administered orally immediately after the bacterial inoculation and again 3 hours later. The selected dosages were administered twice daily throughout the experiment. The efficacy of the treatment was evaluated by comparison of mortality between the experimental and control groups (Table 5).

[5] = tested on: Candida albicans (ATCC 24433); assay: In vitro anti-fungal activity, microdilution against Candida albicans; assay type: cell-based; conditions: for MIC: ATCC24433, C. albicans ATCC 24433
Method: A microdilution method was used to determine the anti-fungal activity of different test compounds against Candida albicans (ATCC 24433) at 25 μg/ml. RPMI-1640 broth is recommended as the medium of choice for susceptibility testing of C. albicans (NCCLS, 2002; Document M27-A2) and was used in this study. The broth was buffered to pH 7.0 and then sterilized using a 250 ml vacuum driven disposable 0.45 um filtration system.
C. albicans was sub-cultured from a −80° C. stock onto Sabouraud dextrose agar and incubated for 24-48 hrs at 37° C. The fungi inoculum was prepared by picking five colonies of ˜1 mm in diameter from 24-48 hr old cultures. The colonies were then suspended in 5 ml of sterile normal saline (8.5 g/L NaCl; 0.85% saline) diluted 1:50 and further diluted 1:20 with medium to obtain two-fold inoculum (1-5×10^3 cfu/ml). […] The microtitre plates were then sealed in plastic bags and incubated at 35° C. for 24-48 hrs in an ambient air incubator with shaking at 250 RPM.
Inhibition of visible growth of C. albicans in the microtitre plate wells was assessed by the unaided eye and confirmed by OD600 reading. […] The MIC values of compounds with significant activity are also included.

[6] = tested on: S. aureus, MRSA 1A-218, 1A-318, 1B-374, 1B-315, 1B-185, 1B387 and MSSA ATCC-6538, ATCC-29213; assay: MIC by standard microdilution method against S. aureus (MRSA and MSSA strains); assay type: cell-based; conditions: Staphylococcus aureus
Method: A standard microdilution method (NCCLS, 2000; Document M7-A5) was used to determine the minimum inhibitory concentrations (MICs) against S. aureus, methicillin-resistant strains (MRSA); 1A-218, 1A-318, 1B-374, 1B-315, 1B-185, 1B387 (Simor et al. 1999 Can Commun Dis Rep; 25:105-108) and methicillin-sensitive strains (MSSA); ATCC-6538 and ATCC-29213. The MICs of some compounds were also determined against other Gram-positive bacteria: Enterococcus faecium (ATCC 51559), Enterococcus faecalis (ATCC-51299, ATCC-29212) and Staphylococcus epidermidis (ATCC-35983).
Mueller-Hinton broth (MHB) is recommended as the medium of choice for susceptibility testing of commonly isolated, rapidly growing aerobic organisms such as the Gram-positive bacteria included in this study. A “cation-adjusted Mueller-Hinton broth” (Ca-MHB) was prepared by first preparing standard MHB from a dehydrated base as recommended by the manufacturer.
Single colonies from fresh agar plates of the different bacterial cultures were sub-cultured overnight in 3 ml of Tryptic soy broth (TSB) at 37° C. with shaking at 250 RPM. After 18-20 hours of incubation, the absorbance at λ=600 nm (OD600) were determined for each culture and adjusted to a final OD600=0.1 (4.2×10^7 cfu/ml). Bacterial suspensions were then diluted 1:200 in sterile Ca-MHB for the in vitro susceptibility test, with each well of the microtitre plate containing approximately 2×10^5 cfu/ml.
Stock solutions of the different test compounds were prepared at concentrations of 1,280 μg/ml, 640 μg/ml, or 320 μg/ml in 50% DMSO (dimethyl sulfoxide). Serial two-fold dilutions were then prepared in 50% DMSO (the working concentrations were 1:10 of the stock concentrations in 100 μl culture suspensions). The filled microtitre plates were sealed in plastic bags and incubated at 35° C. for 24 hr in an ambient air incubator with shaking at 250 RPM. MIC values were determined as the lowest concentration where complete inhibition of the visible bacterial growth was observed by the unaided eye and confirmed by the measurement of the optical density (OD600).

[7] = ATCC24433, C. albicans ATCC 24433, compound 25 μg/ml, 24 h, read-out: Inhibition (%) after 24 h
[8] = ATCC24433, C. albicans ATCC 24433, compound 25 μg/ml, 48 h, read-out: Inhibition (%) after 48 h
[9] = against all 8 strains of S. aureus tested except where indicated, microdilution, Ca-MHB, 35° C., 24 hr, read-out: MIC
[10] = ATCC24433, 24 h, read-out: Inhibition (%) after 24 h
[11] = ATCC24433, 48 h, read-out: Inhibition (%) after 48 h

SMILES	responders at 100 mg/kg [4] [%]	responders at 100 mg/kg ([4]; read-out: Survival %) [%]	inhibition at 25 µg/mL [5, 7] [%]	inhibition at 25 µg/mL [5, 8] [%]	MIC [6, 9] [µg/mL]	other results
O=C(O)c1ccc(-c2nc(-c3ccc(Sc4ccccc4)cc3)c(-c3ccccc3)[nH]2)cc1 [Compound 1]						visual bacterial growth ([1]; Conc. 3.12 μg/ml): +; visual bacterial growth ([1]; Conc. 6.25 μg/ml): +; visual bacterial growth ([1]; Conc. 12.50 μg/ml): −; visual bacterial growth ([1]; Conc. 25.00 μg/ml): −; visual bacterial growth ([1]; Conc. 50.00 μg/ml): −; visual bacterial growth ([1]; Conc. 100.00 μg/ml): −; Survival (%) [2]: 40%; bactericidal or bacteriostatic effect at the corresponding MIC [3]: bactericidal effect
Brc1ccc2[nH]cc(-c3nc(-c4ccccc4)c(-c4ccccc4)[nH]3)c2c1 [Compound 6]	40	40	0	0	4 (≈ 9.65 µM)	
Fc1ccc(-c2nc(-c3c[nH]c4ccc(Br)cc34)[nH]c2-c2ccc(F)cc2)cc1 [Compound 8]	20	20	100	100	2 (≈ 4.44 µM)	MIC [5]: 8 µg/mL (≈ 17.8 µM)
COc1ccc(-c2nc(-c3c[nH]c4ccc(Br)cc34)[nH]c2-c2ccc(OC)cc2)cc1 [Compound 10]	100	100	0	0	4 (≈ 8.43 µM)	
Cc1[nH]c2ccccc2c1-c1nc(-c2ccc(N(C)C)cc2)c(-c2ccc(N(C)C)cc2)[nH]1 [Compound 11]	0	0	27	28	8 (≈ 18.4 µM)	
Clc1ccc(-c2[nH]c(-c3c[nH]c4ccc(Br)cc34)nc2-c2ccccc2)cc1 [Compound 32]	40	40	93	100	8 (≈ 17.8 µM)	MIC [5]: 8 µg/mL (≈ 17.8 µM)
Cc1[nH]c2ccccc2c1-c1nc(-c2ccccc2)c(-c2ccc([N+](=O)[O-])cc2)[nH]1 [Compound 33]	0	0	0	0	4 to 8 (≈ 10.1 to 20.3 µM)	
O=[N+]([O-])c1ccc(-c2[nH]c(-c3c[nH]c4ccc(Br)cc34)nc2-c2ccccc2)cc1 [Compound 34]	100	100	0	0	> 128	
Cc1[nH]c2ccccc2c1-c1nc(-c2ccccc2)c(-c2ccc(F)cc2)[nH]1 [Compound 35]	4	40	100	73	8 (≈ 21.8 µM)	
Fc1ccc(-c2[nH]c(-c3c[nH]c4ccc(Br)cc34)nc2-c2ccccc2)cc1 [Compound 36]	80	80	86	97	2 (≈ 4.63 µM)	MIC [5]: 16 µg/mL (≈ 37 µM)
Cc1[nH]c2ccccc2c1-c1nc(-c2ccccc2)c(-c2ccc(Br)cc2)[nH]1 [Compound 42]	0	0	77	43	4 (≈ 9.34 µM)	
Brc1ccc(-c2[nH]c(-c3c[nH]c4ccc(Br)cc34)nc2-c2ccccc2)cc1 [Compound 43]	80	80	87	59	4 (≈ 8.11 µM)	MIC [5]: 8 µg/mL (≈ 16.2 µM)
Cc1[nH]c2ccccc2c1-c1nc2c3ccccc3c3ccccc3c2[nH]1 [Compound 44]	60	60				inhibition at 25 µg/mL [5, 10]: 0%; inhibition at 25 µg/mL [5, 11]: 0%; MIC ([6]; 24 h): 8 µg/mL (≈ 23 µM)
c1ccc2c(-c3nc4c5ccccc5c5ccccc5c4[nH]3)c[nH]c2c1 [Compound 46]	40	40				inhibition at 25 µg/mL [5, 10]: 33%; inhibition at 25 µg/mL [5, 11]: 0%; MIC ([6]; 24 h): 4 µg/mL (≈ 12 µM)
COC(=O)c1ccc2c(-c3nc(-c4ccccc4)c(-c4ccccc4)[nH]3)c[nH]c2c1 [Compound 83]	20	20	0	0	> 128	
